# Measured values reported in patent US9745348B2 (The University of Manchester, priority 2011, dated 2017).
# Where no end group is shown, it is not given here.
# How the values were obtained:
# [1] = MTT viability of fibroblasts over three days; format: cell-based, human; details: human, adult fibroblasts (HDFa cells)
# Procedure: (§1) MTT assay: Cell viability and proliferation is widely assessed by the MTT assay as already described previously.
# (§2) The fibroblasts cells, Neonatal (HDFn) and Adult (HDFa), were both grown until greater than 80% confluent. […] After 24 hour incubation the culture medium was replaced with fresh medium containing an appropriate amount of the peptide for investigation.
# (§3) The viability of the fibroblasts, Adult (HDFa) and Neonatal (HDFn) cells in the presence of surfactants was tested by MTT assay over three days relative to control wells containing cells only.
# in vitro = format: cell-based; details: human, neonatal fibroblasts (HDFn cells)
# Procedure: as §1
# The fibroblasts cells, Neonatal (HDFn) and Adult (HDFa), were both grown until greater than 80% confluent. The cells were then harvested and seeded into micro well plate at cell densities of 5000 cells/well in a volume […] of medium. After 24 hour incubation the culture medium was replaced with fresh medium containing an appropriate amount of the peptide for investigation.
# [2] = test system: HeLa and HL60 cancer cell lines; details: 24 h
# Procedure: Antitumor activities of peptides were measured using the 3-(4,5-dimethylthiazol-2-yl)-2,-diphenyl tetrazolium bromide (MTT) assay, and the IC50 value was calculated as the concentration of peptide that induced 50% growth inhibition compared to the untreated control.
# HeLa and HL60 cells were seeded in 96-well plates (10^5 cells/well) in a complete medium [Iscove's modified dulbecco's medium (IMDM)] with 10% fetal bovine serum (FBS) for 24 h before peptide treatment. […] Following incubation with peptides, 20 μL of a 5 mg/ml solution MTT reagent was added to each well and incubated for 4 h at 37° C. After removing the supernatant, 150 μL of dimethyl sulfoxide (DMSO) was added to dissolve the formazan crystals that remained in the wells. The absorbance was determined using a microplate ELISA Reader at 570 nm. Wells without cells for blanking the spectrophotometer and the cells without peptides were taken as negative controls.
# [3] = test system: fibroblasts Adult (HDFa) cells; experiment: MTT viability of fibroblasts over three days; format: cell-based, human
# Procedure: as §1, §2, §3
substance,measurement,setting,value
"GIIKKIIKKI-NH2 [Helix G2, G(IIKK)2 I-NH2]","viability at 24 h, 5 µM",[1],101%
same,"viability at 24 h, 25 µM",[1],98%
same,"viability at 24 h, 50 µM",[1],92%
same,"viability at 24 h, 100 µM",[1],91%
same,"viability at 48 h, 5 µM",[1],96%
same,"viability at 48 h, 25 µM",[1],90%
same,"viability at 48 h, 50 µM",[1],90%
same,"viability at 48 h, 100 µM",[1],88%
same,"viability at 72 h, 5 µM",[1],95%
same,"viability at 72 h, 25 µM",[1],88%
same,"viability at 72 h, 50 µM",[1],79%
same,"viability at 72 h, 100 µM",[1],80%
"GIKKKIIKKIIKII-NH2 [GIK, GIK(KKII)2 KII-NH2]","viability at 24 h, 5 µM",[1],97%
same,"viability at 24 h, 25 µM",[1],92%
same,"viability at 24 h, 50 µM",[1],87%
same,"viability at 24 h, 100 µM",[1],85%
same,"viability at 48 h, 5 µM",[1],95%
same,"viability at 48 h, 25 µM",[1],93%
same,"viability at 48 h, 50 µM",[1],78%
same,"viability at 48 h, 100 µM",[1],74%
same,"viability at 72 h, 5 µM",[1],91%
same,"viability at 72 h, 25 µM",[1],90%
same,"viability at 72 h, 50 µM",[1],73%
same,"viability at 72 h, 100 µM",[1],65%
same,"viability at 24 h, 5 µM",in vitro,93%
same,"viability at 24 h, 25 µM",in vitro,98%
same,"viability at 24 h, 50 µM",in vitro,92%
same,"viability at 24 h, 100 µM",in vitro,85%
same,"viability at 48 h, 5 µM",in vitro,87%
same,"viability at 48 h, 25 µM",in vitro,84%
same,"viability at 48 h, 50 µM",in vitro,81%
same,"viability at 48 h, 100 µM",in vitro,78%
same,"viability at 72 h, 5 µM",in vitro,83%
same,"viability at 72 h, 25 µM",in vitro,78%
same,"viability at 72 h, 50 µM",in vitro,75%
same,"viability at 72 h, 100 µM",in vitro,71%
"GKIKKIIKKIIKII-NH2 [GKI, GKI(KKII)2 KII-NH2]",IC50,[2],4 to 25 µM
same,"viability at 24 h, 5 µM",[1],95%
same,"viability at 24 h, 25 µM",[1],93%
same,"viability at 24 h, 50 µM",[1],90%
same,"viability at 24 h, 100 µM",[1],85%
same,"viability at 48 h, 5 µM",[1],82%
same,"viability at 48 h, 25 µM",[1],81%
same,"viability at 48 h, 50 µM",[1],80%
same,"viability at 48 h, 100 µM",[1],75%
same,"viability at 72 h, 5 µM",[1],81%
same,"viability at 72 h, 25 µM",[1],75%
same,"viability at 72 h, 50 µM",[1],71%
same,"viability at 72 h, 100 µM",[1],70%
same,"viability at 24 h, 5 µM",in vitro,95%
same,"viability at 24 h, 25 µM",in vitro,87%
same,"viability at 24 h, 50 µM",in vitro,81%
same,"viability at 24 h, 100 µM",in vitro,69%
same,"viability at 48 h, 5 µM",in vitro,90%
same,"viability at 48 h, 25 µM",in vitro,83%
same,"viability at 48 h, 50 µM",in vitro,75%
same,"viability at 48 h, 100 µM",in vitro,60%
same,"viability at 72 h, 5 µM",in vitro,88%
same,"viability at 72 h, 25 µM",in vitro,78%
same,"viability at 72 h, 50 µM",in vitro,71%
same,"viability at 72 h, 100 µM",in vitro,55%
"GLLKKLLKKLLKKL-NH2 [GL, G(LLKK)3 L-NH2]","viability at 24 h, 5 µM",[1],91%
same,"viability at 24 h, 25 µM",[1],90%
same,"viability at 24 h, 50 µM",[1],87%
same,"viability at 24 h, 100 µM",[1],63%
same,"viability at 48 h, 5 µM",[1],90%
same,"viability at 48 h, 25 µM",[1],88%
same,"viability at 48 h, 50 µM",[1],75%
same,"viability at 48 h, 100 µM",[1],57%
same,"viability at 72 h, 5 µM",[1],87%
same,"viability at 72 h, 25 µM",[1],74%
same,"viability at 72 h, 50 µM",[1],46%
same,"viability at 72 h, 100 µM",[1],11%
same,"viability at 24 h, 5 µM",in vitro,98%
same,"viability at 24 h, 25 µM",in vitro,88%
same,"viability at 24 h, 50 µM",in vitro,85%
same,"viability at 24 h, 100 µM",in vitro,80%
same,"viability at 48 h, 5 µM",in vitro,87%
same,"viability at 48 h, 25 µM",in vitro,84%
same,"viability at 48 h, 50 µM",in vitro,74%
same,"viability at 48 h, 100 µM",in vitro,65%
same,"viability at 72 h, 5 µM",in vitro,83%
same,"viability at 72 h, 25 µM",in vitro,81%
same,"viability at 72 h, 50 µM",in vitro,67%
same,"viability at 72 h, 100 µM",in vitro,35%
cocamide ethanolamines [CMEA],MTT results (relative MTT reading),[3],0.00
